Source: paper PMC2717050, “Evaluation of expression and function of the H^+/myo-inositol transporter HMIT” (BMC Cell Biology, 2009)
pEC50: −log10 of the molar value.

Tests used:
[1] = biological target: T1, HMIT triple mutant (H+/myo-inositol transporter) (Rattus norvegicus, UniProt Q921A2); assay: whole-cell patch-clamp, inositol-evoked inward current; format: cell-based; conditions: extracellular pH 5.2; room temperature; Hill slope 1.0; transiently transfected HEK293/HEK293T cells
T1 construct: gene Slc2a13; stop codon deleted, C-terminal V5-His; pcDNA3.1/V5-His-TOPO; transient in HEK293/HEK293T cells
T1 sequence (Q921A2 1-637): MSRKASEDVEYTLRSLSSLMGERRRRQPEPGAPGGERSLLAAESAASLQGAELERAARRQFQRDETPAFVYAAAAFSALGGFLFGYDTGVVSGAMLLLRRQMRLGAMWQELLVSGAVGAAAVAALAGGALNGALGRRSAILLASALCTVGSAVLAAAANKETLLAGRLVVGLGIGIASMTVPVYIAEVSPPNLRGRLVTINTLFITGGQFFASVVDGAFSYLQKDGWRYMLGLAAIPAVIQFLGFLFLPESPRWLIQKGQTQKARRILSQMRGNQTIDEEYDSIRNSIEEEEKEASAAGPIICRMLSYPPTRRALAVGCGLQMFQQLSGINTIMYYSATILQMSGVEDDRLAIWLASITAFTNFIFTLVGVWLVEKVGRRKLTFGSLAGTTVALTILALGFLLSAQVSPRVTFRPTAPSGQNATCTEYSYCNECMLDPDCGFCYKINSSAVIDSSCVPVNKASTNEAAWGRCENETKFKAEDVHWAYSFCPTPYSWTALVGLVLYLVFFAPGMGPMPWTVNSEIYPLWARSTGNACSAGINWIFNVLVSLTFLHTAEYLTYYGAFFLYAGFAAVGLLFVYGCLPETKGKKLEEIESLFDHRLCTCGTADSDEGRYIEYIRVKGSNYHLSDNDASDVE

[2] = biological target: T1, HMIT triple mutant (H+/myo-inositol transporter); assay: [3H]-myo-inositol uptake in HEK293T cells; format: cell-based; conditions: pH 6.0; 37 °C pre-incubation 10 min; 2 min uptake; non-selective inhibitor

| Compound | pEC50 [1] | % inhibition at 1 mM [2] |
| --- | --- | --- |
| O[C@H]1[C@H](O)[C@@H](O)[C@H](O)[C@@H](O)[C@H]1O [myo-inositol] | 2.57 |  |
| O=C(CCc1ccc(O)cc1)c1c(O)cc(O)cc1O[C@@H]1O[C@H](CO)[C@@H](O)[C@H](O)[C@H]1O [phloridzin] |  | 53 ± 1.4% |
